In ChEMBL document CHEMBL4190372, “Discovery of a Novel Oral Glucocorticoid Receptor Modulator (AZD9567) with Improved Side Effect Profile” (J Med Chem, 2018):
≈ marks a conversion by molar mass, not a printed value.

Columns and labels:
[1] = biological target: T1, Glucocorticoid receptor (Homo sapiens, UniProt P04150); test: Displacement of fluormone RED from human full length glucocorticoid receptor after 4 hrs by fluorescence polarization assay
T1 sequence (P04150 whole entry): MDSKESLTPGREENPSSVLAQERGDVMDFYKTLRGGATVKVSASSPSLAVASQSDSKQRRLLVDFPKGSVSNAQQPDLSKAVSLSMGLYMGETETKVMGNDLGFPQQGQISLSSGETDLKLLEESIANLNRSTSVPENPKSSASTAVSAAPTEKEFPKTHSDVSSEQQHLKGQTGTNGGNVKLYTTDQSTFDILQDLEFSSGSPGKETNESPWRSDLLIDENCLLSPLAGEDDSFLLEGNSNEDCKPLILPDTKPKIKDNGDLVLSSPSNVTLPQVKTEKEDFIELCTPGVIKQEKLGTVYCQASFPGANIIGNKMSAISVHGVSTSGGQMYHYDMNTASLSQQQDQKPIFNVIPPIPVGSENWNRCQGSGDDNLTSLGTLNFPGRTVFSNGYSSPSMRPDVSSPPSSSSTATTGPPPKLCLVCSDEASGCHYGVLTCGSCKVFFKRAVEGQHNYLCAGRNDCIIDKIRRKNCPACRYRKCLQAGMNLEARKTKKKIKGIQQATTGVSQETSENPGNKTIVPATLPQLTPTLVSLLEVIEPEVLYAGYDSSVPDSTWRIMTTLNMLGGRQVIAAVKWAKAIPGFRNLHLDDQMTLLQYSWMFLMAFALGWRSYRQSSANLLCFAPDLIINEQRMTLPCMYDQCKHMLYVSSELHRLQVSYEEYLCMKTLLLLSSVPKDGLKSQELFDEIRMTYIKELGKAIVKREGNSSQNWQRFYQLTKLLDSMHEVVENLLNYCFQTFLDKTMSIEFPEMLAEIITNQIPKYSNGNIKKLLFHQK

[2] = biological target: T1, Glucocorticoid receptor; test: Antagonist activity at glucocorticoid receptor (unknown origin) expressed in human ChaGoK1 cells assessed as inhibition of dexamethasone induced transactivation incubated for 24 hrs by beta-galactosidase reporter gene assay; type: cell-based
[3] = Aqueous solubility of the compound; type: physicochemical
[4] = biological target: T1, Glucocorticoid receptor
Description: Transactivation activity at glucocorticoid receptor (unknown origin) expressed in human ChaGoK1 cells incubated for 24 hrs by beta-galactosidase reporter gene assay

[5] = biological target: T1, Glucocorticoid receptor; remark: listed apart in the source
Description: Transrepression activity at glucocorticoid receptor (unknown origin) expressed in human ChaGoK1 cells assessed as inhibition of PMA-stimulated gene expression incubated for 24 hrs by beta-galactosidase reporter gene assay

[6] = tested on: Hepatocyte; test: Stability in rat hepatocytes; type: ADME, cell-based
[7] = tested on: Hepatocyte; test: Stability in human hepatocytes; type: ADME, cell-based
[8] = biological target: T1, Glucocorticoid receptor; remark: listed apart in the source
Description: (§1) Transrepression of GR in human whole blood assessed as inhibition of LPS-induced TNF-alpha release preincubated for 45 mins followed by LPS addition after 18 hrs by AlphaLISA method

[9] = biological target: T2, Glucocorticoid receptor (Homo sapiens) (UniProt P04150)
T2 sequence (whole entry): T1 sequence (P04150 whole entry)
Description: as §1

[10] = biological target: T2, Glucocorticoid receptor (Homo sapiens); remark: listed apart in the source
Description: Transrepression of GR in cryopreserved human fetal osteoblasts assessed as inhibition of OPG mRNA expression after 4 hrs by RT-qPCR analysis

[11] = biological target: T1, Glucocorticoid receptor; settings: blood
Description: Therapeutic index, ratio of fIC20 for transrepression of GR in cryopreserved human fetal osteoblasts assessed as inhibition of OPG mRNA expression to fIC30 for transrepression of GR in human whole blood assessed as inhibition of LPS-induced TNF-alpha release

[12] = biological target: T1, Glucocorticoid receptor; test: Transactivation of GR in cryopreserved human primary hepatocytes assessed as upregulation of TAT mRNA expression level up to 1 uM after 18 hrs by RT-qPCR analysis
[13] = Intrinsic clearance in rat hepatocytes assessed per million cells; type: ADME, cell-based, Hepatocyte; settings: read-out: CLH
[14] = Clearance in rat; type: ADME, organism-based; settings: in vivo
[15] = Drug metabolism in human hepatocytes assessed as N-((1R,2S)-1-(3-chloro-4-cyanophenoxy)-1-(6-hydroxypyridin-3-yl)propan-2-yl)-2,2-difluoropropanamide formation; type: ADME, cell-based, Hepatocyte
[16] = Drug metabolism in rat hepatocytes assessed as N-((1R,2S)-1-(3-chloro-4-cyanophenoxy)-1-(6-hydroxypyridin-3-yl)propan-2-yl)-2,2-difluoropropanamide formation; type: ADME, cell-based, Hepatocyte

Row | Compound | IC50 [1] [nM] | IC50 [2] [nM] | solubility ([3]; aqueous, read-out: solubility) [µM] | EC50 [4] [nM] | IC50 [5] [nM] | other results
1 | CC(C)[C@H](NC(=O)C(C)(F)F)[C@H](Oc1ccc2c(cnn2-c2cc(F)c(=O)n(C)c2)c1)c1ccccc1 | < 3.2 | 301 | 14 (≈ 7.18 µg/mL) | 18 | 5.6 | –
2 | COc1ccc([C@@H](Oc2ccc3c(cnn3-c3ccc(F)cc3)c2)[C@H](Cc2ccccc2)NC(=O)C(C)(F)F)cn1 | 32 | 92 | < 0.1 | 8.7 | 2 | –
3 | C[C@H](NC(=O)C(C)(F)F)[C@H](Oc1ccc(C#N)cc1Br)c1cnc(C2CC2)nc1 | 2.4 | – | 110 (≈ 51.2 µg/mL) | 6.4 | 1.1 | Stability [6]: Stable; Stability [7]: Stable
4 | Cn1cc(-n2ncc3cc(O[C@H](c4ccccc4)[C@H](CC4CC4)NC(=O)C(C)(F)F)ccc32)ccc1=O | – | – | 20 (≈ 10.1 µg/mL) | – | – | –
5 | N#Cc1ccc(O[C@H](c2cnc(C3CC3)nc2)[C@@H](NC(=O)C(F)(F)F)C2CC2)c(Br)c1 | 14 | 221 | 86 (≈ 42.6 µg/mL) | – | 21 | Stability [6]: Stable; Stability [7]: Stable; IC50 [8]: 340 nM; fIC30 [9]: 36 nM; fIC20 [10]: 0.5 nM; TI [11]: 0.014
6 | N#Cc1ccc(O[C@H](c2cnc(C3CC3)nc2)[C@H](CO)NC(=O)C(F)(F)F)c(Br)c1 | 42 | – | > 730 | – | – | –
7 | Cc1ncccc1NC(=O)c1ccc2c(c1)CC[C@@H]1C[C@@](O)(C(F)(F)F)CC[C@@]21Cc1ccccc1 [DAGROCORAT] | < 7.2 | 8.9 | 3.2 (≈ 1.58 µg/mL) | 4.8 | 0.69 | IC50 [8]: 35 nM; fIC30 [9]: 2.3 nM; fIC20 [10]: 0.0667 nM; TI [11]: 0.029
8 | Cn1cc(-n2ncc3cc(O[C@H](c4ccccc4)[C@@H](NC(=O)C(C)(F)F)C4CC4)ccc32)ccc1=O | – | – | 48 (≈ 23.6 µg/mL) | – | – | –
9 | Cc1nnc(C(=O)N[C@@H](C(C)O)[C@H](Oc2ccc3c(cnn3-c3ccc(F)cc3)c2)c2cc(F)cc(F)c2)o1 (single isomer, unassigned) | 16 | 270 | 0.9 (≈ 0.484 µg/mL) | 3.5 | 1.6 | Stability [6]: Stable; Activity [12]: Not Active; IC50 [8]: 180 nM; fIC30 [9]: 0.53 nM; fIC20 [10]: 0.04 nM; TI [11]: 0.076
10 | CCS(=O)(=O)c1cc2cc(C[C@](O)(CC(C)(C)c3ccc(F)cc3C(N)=O)C(F)(F)F)[nH]c2cn1 [BI 653048] | – | – | – | – | – | solubility ([3]; buffer): 160 µM (≈ 82.5 µg/mL)
11 | COc1ccc([C@@H](Oc2ccc3c(cnn3-c3ccc(F)cc3)c2)[C@@H](NC(=O)C(C)(F)F)C(C)C)cn1 | 18 | 70 | < 0.01 | 3.5 | 0.57 | –
12 | CC[C@H](NC(=O)C(F)(F)F)[C@H](Oc1ccc(C#N)cc1Br)c1cnc(C2CC2)nc1 | 9.3 | 560 | 110 (≈ 53.2 µg/mL) | 54 | 9.6 | Stability [6]: Stable; Stability [7]: Stable
13 | COc1ccc([C@@H](Oc2ccc(C#N)cc2)[C@H](C)NC(=O)C(C)(F)F)cn1 | < 6.8 | – | 290 (≈ 109 µg/mL) | – | 70 | –
14 | CC(C)[C@H](NC(=O)C(F)(F)F)[C@H](Oc1ccc2c(cnn2-c2ccc(F)cc2)c1)c1ccccc1 | 16 | 25 | < 0.1 | 5.4 | < 0.42 | –
15 | CC#C[C@]1(O)CC[C@H]2[C@@H]3CCC4=CC(=O)CCC4=C3[C@@H](c3ccc(N(C)C)cc3)C[C@@]21C [MIFEPRISTONE] | – | – | 6.9 (≈ 2.96 µg/mL) | – | – | –
16 | CC(C)[C@H](NC(=O)C(C)(F)F)[C@H](Oc1ccc2c(cnn2-c2ccc(F)cc2)c1)c1ccccc1 | < 14 | 13 | < 0.08 | 3.9 | < 0.34 | –
17 | C[C@H](NC(=O)C(C)(F)F)[C@H](Oc1ccc(C#N)cc1Cl)c1cnc(C2CC2)nc1 | < 4.1 | – | 430 (≈ 181 µg/mL) | 21 | 7.8 | hepatocyte CLint [13]: 3.4 µL/min/1e6 cells; clearance [14]: 7.3 mL/min/kg
18 | C[C@H](NC(=O)C(C)(F)F)[C@H](Oc1ccc2c(cnn2-c2ccc(=O)n(C)c2)c1)c1ccccc1 | – | – | 140 (≈ 65.3 µg/mL) | 2.3 | 1.6 | –

Row | Compound | IC50 [1] [nM] | IC50 [2] [nM] | solubility ([3]; aqueous, read-out: solubility) [µM] | EC50 [4] [nM] | IC50 [5] [nM] | other results
19 | COc1ccc([C@@H](Oc2ccc3c(cnn3-c3ccc(F)cc3)c2)[C@H](C)NC(=O)C2CC2)cn1 | – | – | 1 (≈ 0.461 µg/mL) | – | – | –
20 | CC(C)[C@H](NC(=O)C(C)(F)F)[C@H](Oc1ccc2c(cnn2-c2cscn2)c1)c1ccccc1 | 52 | 131 | 5.8 (≈ 2.73 µg/mL) | 29 | 3.3 | –
21 | CCC[C@H](NC(=O)C(C)(F)F)[C@H](Oc1ccc2c(cnn2-c2ccc(=O)n(C)c2)c1)c1ccccc1 | – | – | 22 (≈ 10.9 µg/mL) | – | – | –
22 | COc1ccc(-n2ncc3cc(O[C@H](c4ccccc4)[C@@H](NC(=O)C(C)(F)F)C(C)C)ccc32)cn1 | 57 | – | < 0.5 | – | – | –
23 | C[C@H](NC(=O)C(F)(F)F)[C@H](Oc1ccc(C#N)cc1Br)c1cnc(C2CC2)nc1 | 2.4 | – | 97 (≈ 45.5 µg/mL) | 23 | 2.5 | Stability [6]: Stable; Stability [7]: Stable
24 | CC(C)[C@H](NC(=O)C(C)(F)F)[C@H](Oc1ccc2c(cnn2-c2ccc(=O)n(C)c2)c1)c1cc(F)cc(F)c1 | 4.7 | 23 | 21 (≈ 11.1 µg/mL) | 2.7 | 2.2 | IC50 [8]: 120 nM; fIC30 [9]: 0.7 nM; fIC20 [10]: 0.12 nM; TI [11]: 0.17
25 | CC(C)[C@H](NC(=O)C(C)(F)F)[C@H](Oc1ccc2c(cnn2-c2cc(C#N)c(=O)n(C)c2)c1)c1ccccc1 | 7.2 | – | 11 (≈ 5.72 µg/mL) | 110 | 27 | –
26 | CC(C)[C@H](NC(=O)C(C)(F)F)[C@H](Oc1ccc2c(cnn2-c2ccc(=O)n(C)c2)c1)c1cccc(Cl)c1 | 2.6 | 324 | 10 (≈ 5.29 µg/mL) | 2.9 | 1.7 | –
27 | CC(C)[C@H](NC(=O)C(F)(F)F)[C@H](Oc1ccc2c(cnn2-c2ccc(=O)n(C)c2)c1)c1cccc(Cl)c1 | < 3 | 114 | 9.6 (≈ 5.12 µg/mL) | 5.6 | 3 | IC50 [8]: 420 nM; fIC30 [9]: 1.6 nM; fIC20 [10]: 0.92 nM; TI [11]: 0.58
28 | COc1ccc([C@@H](Oc2ccc3c(cnn3-c3ccc(F)cc3)c2)[C@H](COC(C)(C)C)NC(=O)C(C)(F)F)cn1 | – | – | < 0.01 | – | – | –
29 | COc1ccc([C@@H](Oc2ccc(C#N)cc2Cl)[C@H](C)NC(=O)C(C)(F)F)cn1 | 7.1 | – | 85 (≈ 34.8 µg/mL) | 43 | 16 | hepatocyte CLint [13]: 93 µL/min/1e6 cells; clearance [14]: 22 mL/min/kg
30 | CC(O)[C@H](NC(=O)C(C)(F)F)[C@H](Oc1ccc2c(cnn2-c2ccc(=O)n(C)c2)c1)c1ccccc1 (some centres not stated) | – | – | 250 (≈ 124 µg/mL) | – | – | –
31 | CC(C)[C@H](NC(=O)C(C)(F)F)[C@H](Oc1ccc2c(cnn2-c2cccn(C)c2=O)c1)c1ccccc1 | 6.1 | – | 160 (≈ 79.1 µg/mL) | 27 | 11 | –
32 | CC(C)(C)OC[C@H](NC(=O)C(F)(F)F)[C@H](Oc1ccc(C#N)cc1Br)c1cnc(C2CC2)nc1 | 160 | 516 | 18 (≈ 9.74 µg/mL) | – | – | Stability [6]: Stable; Stability [7]: Stable
33 | CC(C)[C@H](NC(=O)C(C)(F)F)[C@H](Oc1ccc2c(cnn2-c2cnc(=O)n(C)c2)c1)c1ccccc1 | – | – | 5.1 (≈ 2.53 µg/mL) | 87 | 51 | –
34 | COc1ccc([C@@H](Oc2ccc(C#N)c(Cl)c2)[C@H](C)NC(=O)C(C)(F)F)cn1 | < 4 | – | 100 (≈ 41 µg/mL) | 33 | 9.3 | Drug metabolism [15]: Metabolite_Detected; Drug metabolism [16]: Metabolite_Detected
35 | CC(C)[C@H](NC(=O)C(C)(F)F)[C@H](Oc1ccc2c(cnn2-c2ccns2)c1)c1ccccc1 | – | – | 0.96 (≈ 0.452 µg/mL) | – | 39 | –
36 | CC[C@H](NC(=O)C(C)(F)F)[C@H](Oc1ccc2c(cnn2-c2ccc(=O)n(C)c2)c1)c1ccccc1 | – | – | 51 (≈ 24.5 µg/mL) | – | – | –
